Assay results as given in ChEMBL document CHEMBL3885881, “DrugMatrix”.

Organism: Rattus norvegicus
Test: DrugMatrix - Regimen: Daily Repeat
Assay type: toxicity, organism-based, Sprague-Dawley
Parameters: regimen Daily Repeat, gender Male, age 6-8 weeks
Details: in vivo, sc, route subcutaneous, […]; for ABSOLUTE BASOPHIL / ABSOLUTE EOSINOPHIL / ABSOLUTE LYMPHOCYTE / ABSOLUTE MONOCYTE / ABSOLUTE SEGMENTED NEUTROPHIL / BASOPHIL / EOSINOPHIL / ERYTHROCYTE COUNT / HEMATOCRIT / HEMOGLOBIN / LEUKOCYTE COUNT / LYMPHOCYTE / MEAN CORPUSCULAR HEMOGLOBIN / MEAN CORPUSCULAR HEMOGLOBIN CONCENTRATION / MEAN CORPUSCULAR VOLUME / MONOCYTE / NEUTROPHIL / NUCLEATED RED BLOOD CELLS / PLATELET COUNT: tissue Blood; for ALANINE AMINOTRANSFERASE / ALBUMIN / ALKALINE PHOSPHATASE / ASPARTATE AMINOTRANSFERASE / BLOOD UREA NITROGEN / CARBON DIOXIDE / CHLORIDE / CHOLESTEROL / CREATINE PHOSPHOKINASE / CREATININE / GLUCOSE / LACTATE DEHYDROGENASE / LIPASE / PHOSPHORUS / POTASSIUM / SODIUM / TOTAL BILIRUBIN / TOTAL PROTEIN / URIC ACID: tissue Plasma
[1] = 0 mg/kg, 72 h, dose level Control, time 3 day
[2] = 0 mg/kg, 120 h, dose level Control, time 5 day
[3] = 14 mg/kg, 72 h, dose level Low, time 3 day

CCN(CC)CCOCCC1=CCC2CC1C2(C)C (centres undefined) [MYRTECAINE]
ABSOLUTE BASOPHIL [1]: 0 CELLS/uL
ABSOLUTE EOSINOPHIL [1]: 0 CELLS/uL
ABSOLUTE LYMPHOCYTE [1]: 10887 CELLS/uL
ABSOLUTE MONOCYTE [1]: 56 CELLS/uL
ABSOLUTE SEGMENTED NEUTROPHIL [1]: 1057 CELLS/uL
BASOPHIL [1]: 0%
EOSINOPHIL [1]: 0%
ERYTHROCYTE COUNT [1]: 5.31 x10E6/uL
HEMATOCRIT [1]: 33.78%
HEMOGLOBIN [1]: 13.4 G/DL
LEUKOCYTE COUNT [1]: 12 x10E3/uL
LYMPHOCYTE [1]: 91.17%
MEAN CORPUSCULAR HEMOGLOBIN [1]: 25.25 pg
MEAN CORPUSCULAR HEMOGLOBIN CONCENTRATION [1]: 39.65 G/DL
MEAN CORPUSCULAR VOLUME [1]: 63.65 fL
MONOCYTE [1]: 0.5%
NEUTROPHIL [1]: 8.33%
NUCLEATED RED BLOOD CELLS [1]: 0 /100WBC
PLATELET COUNT [1]: 1142 x10E3/uL
ALANINE AMINOTRANSFERASE [1]: 57.17 u/L
ALBUMIN [1]: 4.28 G/DL
ALKALINE PHOSPHATASE [1]: 425.83 u/L
ASPARTATE AMINOTRANSFERASE [1]: 93.83 u/L
BLOOD UREA NITROGEN [1]: 14.17 mg/dL
CARBON DIOXIDE [1]: 33.5 mmol/L
CHLORIDE [1]: 100 MEQ/L
CHOLESTEROL [1]: 70.33 mg/dL
CREATINE PHOSPHOKINASE [1]: 438.67 u/L
CREATININE [1]: 0.19 mg/dL
GLUCOSE [1]: 138.5 mg/dL
LACTATE DEHYDROGENASE [1]: 190.17 u/L
LIPASE [1]: 9.83 u/L
PHOSPHORUS [1]: 11.05 mg/dL
POTASSIUM [1]: 6.59 MEQ/L
SODIUM [1]: 143.58 MEQ/L
TOTAL BILIRUBIN [1]: 0.22 mg/dL
TOTAL PROTEIN [1]: 6.15 G/DL
URIC ACID [1]: 1.3 mg/dL
ABSOLUTE BASOPHIL [2]: 0 CELLS/uL
ABSOLUTE EOSINOPHIL [2]: 91.17 CELLS/uL
ABSOLUTE LYMPHOCYTE [2]: 11847.67 CELLS/uL
ABSOLUTE MONOCYTE [2]: 172.83 CELLS/uL
ABSOLUTE SEGMENTED NEUTROPHIL [2]: 1105 CELLS/uL
BASOPHIL [2]: 0%
EOSINOPHIL [2]: 0.67%
ERYTHROCYTE COUNT [2]: 5.35 x10E6/uL
HEMATOCRIT [2]: 33.65%
HEMOGLOBIN [2]: 13.42 G/DL
LEUKOCYTE COUNT [2]: 13.22 x10E3/uL
LYMPHOCYTE [2]: 89.83%
MEAN CORPUSCULAR HEMOGLOBIN [2]: 25.12 pg
MEAN CORPUSCULAR HEMOGLOBIN CONCENTRATION [2]: 39.9 G/DL
MEAN CORPUSCULAR VOLUME [2]: 63 fL
MONOCYTE [2]: 1.33%
NEUTROPHIL [2]: 8.17%
NUCLEATED RED BLOOD CELLS [2]: 0 /100WBC
PLATELET COUNT [2]: 1347.83 x10E3/uL
ALANINE AMINOTRANSFERASE [2]: 50 u/L
ALBUMIN [2]: 4.1 G/DL
ALKALINE PHOSPHATASE [2]: 329.17 u/L
ASPARTATE AMINOTRANSFERASE [2]: 77.17 u/L
BLOOD UREA NITROGEN [2]: 16.83 mg/dL
CARBON DIOXIDE [2]: 34.83 mmol/L
CHLORIDE [2]: 99.83 MEQ/L
CHOLESTEROL [2]: 75.67 mg/dL
CREATINE PHOSPHOKINASE [2]: 295.83 u/L
CREATININE [2]: 0.18 mg/dL
GLUCOSE [2]: 156.33 mg/dL
LACTATE DEHYDROGENASE [2]: 166.83 u/L
LIPASE [2]: 9.83 u/L
PHOSPHORUS [2]: 12.18 mg/dL
POTASSIUM [2]: 6.69 MEQ/L
SODIUM [2]: 143.97 MEQ/L
TOTAL BILIRUBIN [2]: 0.22 mg/dL
TOTAL PROTEIN [2]: 6.05 G/DL
URIC ACID [2]: 1.6 mg/dL
ABSOLUTE BASOPHIL [3]: 0 CELLS/uL
ABSOLUTE EOSINOPHIL [3]: 0 CELLS/uL
ABSOLUTE LYMPHOCYTE [3]: 10822.33 CELLS/uL
ABSOLUTE MONOCYTE [3]: 0 CELLS/uL
ABSOLUTE SEGMENTED NEUTROPHIL [3]: 1344.33 CELLS/uL
BASOPHIL [3]: 0%
EOSINOPHIL [3]: 0%
ERYTHROCYTE COUNT [3]: 5.32 x10E6/uL
HEMATOCRIT [3]: 33.73%
HEMOGLOBIN [3]: 13.37 G/DL
LEUKOCYTE COUNT [3]: 12.17 x10E3/uL
LYMPHOCYTE [3]: 89%
MEAN CORPUSCULAR HEMOGLOBIN [3]: 25.13 pg
MEAN CORPUSCULAR HEMOGLOBIN CONCENTRATION [3]: 39.6 G/DL
MEAN CORPUSCULAR VOLUME [3]: 63.4 fL
MONOCYTE [3]: 0%
NEUTROPHIL [3]: 11%
NUCLEATED RED BLOOD CELLS [3]: 0 /100WBC
PLATELET COUNT [3]: 1197.33 x10E3/uL
ALANINE AMINOTRANSFERASE [3]: 47.67 u/L
ALBUMIN [3]: 4.13 G/DL
ALKALINE PHOSPHATASE [3]: 420 u/L
ASPARTATE AMINOTRANSFERASE [3]: 80.67 u/L
BLOOD UREA NITROGEN [3]: 13.67 mg/dL
CARBON DIOXIDE [3]: 25.67 mmol/L
CHLORIDE [3]: 103.67 MEQ/L
CHOLESTEROL [3]: 75.67 mg/dL
CREATINE PHOSPHOKINASE [3]: 200.33 u/L
CREATININE [3]: 0.16 mg/dL
GLUCOSE [3]: 152.33 mg/dL
LACTATE DEHYDROGENASE [3]: 214.67 u/L
LIPASE [3]: 9 u/L
PHOSPHORUS [3]: 14.03 mg/dL
POTASSIUM [3]: 6.82 MEQ/L
SODIUM [3]: 146.53 MEQ/L
TOTAL BILIRUBIN [3]: 0.17 mg/dL
TOTAL PROTEIN [3]: 5.97 G/DL
URIC ACID [3]: 1.5 mg/dL
